As usually defined, the EC50 is the concentration at which the effect is half-maximal.

Among the data in BindingDB's records for doi:10.1021/acs.jmedchem.0c01312 (Jinan University, 2020) are EC50 values, retold here.

The assay can be described thus: Inhibition of KRas G12C mutant in human NCI-H1792 cells assessed as antiproliferative activity incubated for 3 days by CellTiter-Glo assay. For orientation: In ATP-based viability assays light output follows the ATP content of the culture.

As for `C=CC(=O)N1CCN(C(=O)CNc2cc(I)c(Cl)cc2O)CC1`, the 50% effective concentration (EC50) was determined as 320 nM.
